Reference: patent US20060069132A1, “Azolecarboxamide herbicides” (priority 2004, published 2006)

What was measured:
rice [1] = experiment: Test B pre-/postemergence herbicide test; format: in vivo, Oryza sativa; details: 500 g ai/ha; visual rating 0-100, 0 no effect, 100 complete control; preemergence
How it was run: (§1)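 Formulation: non-phytotoxic solvent mix with surfactant. Timing: preemergence on seed and postemergence on 2–18 cm plants, applied concurrently. Readout after 13–15 d greenhouse: visual 0–100 control rating against controls.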

large crabgrass [2] = experiment: Test A pre-/postemergence herbicide test; format: in vivo, Digitaria sanguinalis
How it was run: (§2)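 Pre: seeded sandy loam, directed soil spray, compound in non-phytotoxic solvent + surfactant. Post: 1–2-leaf plants (2–10 cm), sprayed to runoff. Greenhouse ~10 d; visual injury vs untreated, 0–100 scale.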

giant foxtail [3] = experiment: Test A pre-/postemergence herbicide test; format: in vivo, Setaria faberi
How it was run: as §2

velvetleaf [4] = experiment: Test A pre-/postemergence herbicide test; format: in vivo, Abutilon theophrasti
How it was run: as §2

velvetleaf [5] = experiment: Test B pre-/postemergence herbicide test; format: in vivo, Abutilon theophrasti; details: for Plant response rating, Velvetleaf: preemergence; for Velvetleaf plant response rating: postemergence, visual rating, scale 0 (no effect) to 100 (complete control)
How it was run: as §1

barnyardgrass [6] = experiment: Test A pre-/postemergence herbicide test; format: in vivo, Echinochloa crus-galli
How it was run: as §2

wheat = experiment: Test B postemergence herbicide test; format: in vivo, Triticum aestivum; set-up: key to Wheat plant response rating: 0 = no effect, 100 = complete control; details: postemergence, visual rating, scale 0 (no effect) to 100 (complete control)
How it was run: (§3)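 Postemergence plants were sprayed with formulated test chemicals at 2 to 18 cm height (1- to 4-leaf stage); paddy species were grown to the 2-leaf stage. After 13 to 15 days in a greenhouse, injury was rated visually against untreated controls on a 0–100 scale (0 = no effect, 100 = complete control).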

corn = experiment: Test B pre-/postemergence herbicide test; format: in vivo, Zea mays; details: for Plant response rating, Corn: preemergence; for Corn plant response rating: postemergence, visual rating, scale 0 (no effect) to 100 (complete control)
How it was run: as §1

giant foxtail [7] = experiment: Test B pre-/postemergence herbicide test; format: in vivo, Setaria faberi; details: for Plant response rating, Foxtail, Giant: preemergence; for Foxtail, Giant plant response rating: postemergence, visual rating, scale 0 (no effect) to 100 (complete control)
How it was run: as §1

Surinam grass = experiment: Test B pre-/postemergence herbicide test; format: in vivo, Urochloa decumbens; details: for Plant response rating, Surinam Grass: preemergence; for Surinam Grass plant response rating: postemergence, visual rating, scale 0 (no effect) to 100 (complete control)
How it was run: as §1

pigweed = experiment: Test B pre-/postemergence herbicide test; format: in vivo, Amaranthus retroflexus; details: for Plant response rating, Pigweed: preemergence; for Pigweed plant response rating: postemergence, visual rating, scale 0 (no effect) to 100 (complete control)
How it was run: as §1

rice [8] = experiment: Test B flooded paddy test; format: in vivo, Oryza sativa; details: 1000 g ai/ha, visual rating, scale 0 to 100 (0 no effect, 100 complete control), 13 to 15 days
How it was run: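 Scale 0–100: zero equals no visible effect, 100 complete control, judged by eye relative to controls. Timing: 13 to 15 days in greenhouse post-treatment. Growth stage at spraying: two leaves (paddy) or one to four leaves, 2–18 cm (postemergence).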

morningglory [9] = experiment: Test A pre-/postemergence herbicide test; format: in vivo, Ipomoea spp.
How it was run: as §2

redroot pigweed = experiment: Test A pre-/postemergence herbicide test; format: in vivo, Amaranthus retroflexus
How it was run: as §2

ducksalad = experiment: Test B flooded paddy test; format: in vivo, Heteranthera limosa; details: 1000 g ai/ha, visual rating, scale 0 to 100 (0 no effect, 100 complete control), 13 to 15 days
How it was run: (§4)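 Read-out: visual comparison with controls, scored 0 to 100, where 100 means complete control and 0 no effect. Formulated chemicals were applied postemergence to plants 2–18 cm tall (1- to 4-leaf), or to flooded-paddy plants at the 2-leaf stage, then held 13 to 15 days under glass.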

morningglory [10] = experiment: Test B pre-/postemergence herbicide test; format: in vivo, Ipomoea coccinea; details: for Plant response rating, Morningglory: preemergence; for Morningglory plant response rating: postemergence, visual rating, scale 0 (no effect) to 100 (complete control)
How it was run: (§5)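 Pre: seeds sown, then sprayed. Post: 1–4-leaf plants (2–18 cm) sprayed at the same time. Paddy: flooded, treated at 2-leaf stage. Formulation: non-phytotoxic solvent with surfactant. Greenhouse 13–15 days; visual 0–100 score relative to controls.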

[11] = test system: small flower umbrella sedge; experiment: Test B flooded paddy test; format: in vivo, Cyperus difformis; details: 1000 g ai/ha, visual rating, scale 0 to 100 (0 no effect, 100 complete control), 13 to 15 days
How it was run: as §4

lambsquarters = experiment: Test B pre-/postemergence herbicide test; format: in vivo, Chenopodium album; details: for Plant response rating, Lambsquarters: preemergence; for Lambsquarters plant response rating: postemergence, visual rating, scale 0 (no effect) to 100 (complete control)
How it was run: as §1

blackgrass = experiment: Test B postemergence herbicide test; format: in vivo, Alopecurus myosuroides; details: postemergence, visual rating, scale 0 (no effect) to 100 (complete control)
How it was run: as §4

wild oat = experiment: Test B postemergence herbicide test; format: in vivo, Avena fatua; details: postemergence, visual rating, scale 0 (no effect) to 100 (complete control)
How it was run: as §3

barnyardgrass [12] = experiment: Test B pre-/postemergence herbicide test; format: in vivo, Echinochloa crus-galli; details: for Plant response rating, Barnyardgrass: preemergence; for Barnyardgrass plant response rating: postemergence, visual rating, scale 0 (no effect) to 100 (complete control)
How it was run: as §5

large crabgrass [13] = experiment: Test B pre-/postemergence herbicide test; format: in vivo, Digitaria sanguinalis; details: for Plant response rating, Crabgrass, Large: preemergence; for Crabgrass, Large plant response rating: postemergence, visual rating, scale 0 (no effect) to 100 (complete control)
How it was run: as §1

cocklebur = experiment: Test B pre-/postemergence herbicide test; format: in vivo, Xanthium strumarium; details: for Plant response rating, Cocklebur: preemergence; for Cocklebur plant response rating: postemergence, visual rating, scale 0 (no effect) to 100 (complete control)
How it was run: as §5

barnyardgrass [14] = experiment: Test B flooded paddy test; format: in vivo, Echinochloa crus-galli; details: 1000 g ai/ha, visual rating, scale 0 to 100 (0 no effect, 100 complete control), 13 to 15 days
How it was run: as §4

[15] = Postemergence, 250 g ai/ha, 0 to 100 scale, 0 no effect, 100 complete control
[16] = Postemergence, 1000 g ai/ha, 0 to 100 scale, 0 no effect, 100 complete control
[17] = Preemergence, 1000 g ai/ha, visual rating, 0 to 100 scale (0 no effect, 100 complete control)
[18] = preemergence, 250 g ai/ha, visual injury, 0 to 100 scale (0 no effect, 100 complete control)
[19] = 500 g ai/ha, visual rating 0-100, 0 no effect, 100 complete control
[20] = 125 g ai/ha, 0 to 100 scale, 0 is no effect, 100 is complete control

## CCn1nc(C(C)(C)C)cc1C(=O)Nc1cccc(S(C)(=O)=O)c1 [Compound 133]
Rice [1]
  Plant response rating, Rice: 40
Large crabgrass [2]; [15]
  Crabgrass, Large plant response rating: 10
Large crabgrass [2]; [16]
  Plant response rating, Crabgrass, Large: 20
Large crabgrass [2]; [17]
  Crabgrass, Large plant response rating: 80
Large crabgrass [2]; [18]
  Crabgrass, Large plant response rating: 25
Giant foxtail [3]; [15]
  Foxtail, Giant plant response rating: 10
Giant foxtail [3]; [16]
  Plant response rating, Foxtail, Giant: 20
Giant foxtail [3]; [17]
  Foxtail, Giant plant response rating: 30
Giant foxtail [3]; [18]
  Foxtail, Giant plant response rating: 0
Velvetleaf [4]; [15]
  Velvetleaf plant response rating: 10
Velvetleaf [4]; [16]
  Plant response rating, Velvetleaf: 15
Velvetleaf [4]; [17]
  Velvetleaf plant response rating: 35
Velvetleaf [4]; [18]
  Velvetleaf plant response rating: 5
Velvetleaf [5]; [19]
  Plant response rating, Velvetleaf: 70
Velvetleaf [5]; 125 g ai/ha
  Velvetleaf plant response rating: 10
Velvetleaf [5]; 500 g ai/ha
  Velvetleaf plant response rating: 50
Velvetleaf [5]; [20]
  Plant response rating, Velvetleaf: 20
Barnyardgrass [6]; [15]
  Barnyardgrass plant response rating: 20
Barnyardgrass [6]; [16]
  Plant response rating, Barnyardgrass: 55
Barnyardgrass [6]; [17]
  Barnyardgrass plant response rating: 45
Barnyardgrass [6]; [18]
  Barnyardgrass plant response rating: 0
wheat; 125 g ai/ha
  Wheat plant response rating: 0
wheat; 500 g ai/ha
  Wheat plant response rating: 0
corn; [19]
  Plant response rating, Corn: 0
corn; 125 g ai/ha
  Corn plant response rating: 10
corn; 500 g ai/ha
  Corn plant response rating: 20
corn; [20]
  Plant response rating, Corn: 0
Giant foxtail [7]; [19]
  Plant response rating, Foxtail, Giant: 40
Giant foxtail [7]; 125 g ai/ha
  Foxtail, Giant plant response rating: 0
Giant foxtail [7]; 500 g ai/ha
  Foxtail, Giant plant response rating: 20
Giant foxtail [7]; [20]
  Plant response rating, Foxtail, Giant: 0
Surinam grass; [19]
  Plant response rating, Surinam Grass: 20
Surinam grass; 125 g ai/ha
  Surinam Grass plant response rating: 0
Surinam grass; 500 g ai/ha
  Surinam Grass plant response rating: 50
Surinam grass; [20]
  Plant response rating, Surinam Grass: 0
pigweed; [19]
  Plant response rating, Pigweed: 100
pigweed; 125 g ai/ha
  Pigweed plant response rating: 20
pigweed; 500 g ai/ha
  Pigweed plant response rating: 50
pigweed; [20]
  Plant response rating, Pigweed: 100
Rice [8]
  Rice plant response rating: 0
Morningglory [9]; [15]
  Morningglory plant response rating: 10
Morningglory [9]; [16]
  Plant response rating, Morningglory: 20
Morningglory [9]; [17]
  Morningglory plant response rating: 0
Morningglory [9]; [18]
  Morningglory plant response rating: 0
Redroot pigweed; [15]
  Pigweed plant response rating: 30
Redroot pigweed; [16]
  Plant response rating, Pigweed: 75
Redroot pigweed; [17]
  Pigweed plant response rating: 65
Redroot pigweed; [18]
  Pigweed plant response rating: 10
ducksalad
  Ducksalad plant response rating: 50
Morningglory [10]; [19]
  Plant response rating, Morningglory: 10
Morningglory [10]; 125 g ai/ha
  Morningglory plant response rating: 10
Morningglory [10]; 500 g ai/ha
  Morningglory plant response rating: 20
Morningglory [10]; [20]
  Plant response rating, Morningglory: 10
[11]
  Sedge, Umbrella plant response rating: 40
lambsquarters; [19]
  Plant response rating, Lambsquarters: 100
lambsquarters; 125 g ai/ha
  Lambsquarters plant response rating: 60
lambsquarters; 500 g ai/ha
  Lambsquarters plant response rating: 70
lambsquarters; [20]
  Plant response rating, Lambsquarters: 50
blackgrass; 125 g ai/ha
  Blackgrass plant response rating: 0
blackgrass; 500 g ai/ha
  Blackgrass plant response rating: 10
Wild oat; 125 g ai/ha
  Oat, Wild plant response rating: 20
Wild oat; 500 g ai/ha
  Oat, Wild plant response rating: 20
Barnyardgrass [12]; [19]
  Plant response rating, Barnyardgrass: 60
Barnyardgrass [12]; 125 g ai/ha
  Barnyardgrass plant response rating: 0
Barnyardgrass [12]; 500 g ai/ha
  Barnyardgrass plant response rating: 40
Barnyardgrass [12]; [20]
  Plant response rating, Barnyardgrass: 10
Large crabgrass [13]; [19]
  Plant response rating, Crabgrass, Large: 80
Large crabgrass [13]; 125 g ai/ha
  Crabgrass, Large plant response rating: 10
Large crabgrass [13]; 500 g ai/ha
  Crabgrass, Large plant response rating: 30
Large crabgrass [13]; [20]
  Plant response rating, Crabgrass, Large: 20
cocklebur; [19]
  Plant response rating, Cocklebur: 0
cocklebur; 125 g ai/ha
  Cocklebur plant response rating: 10
cocklebur; 500 g ai/ha
  Cocklebur plant response rating: 60
cocklebur; [20]
  Plant response rating, Cocklebur: 0
Barnyardgrass [14]
  Barnyardgrass plant response rating: 20
